28 molecules from patent US8859574B2 (IRM LLC, priority 2008, dated 2014) can be followed below.

The target in this assay is T1, IGF-1R Ba/F3 (Homo sapiens, UniProt P08069).
T1 construct: fused on or other part: TEL- (or BCR-) IGF-1R in Ba/F3: the kinase part holds the site
The assay is described as follows: Ba/F3 Cell Viability Inhibition Assay (IGF-1R Ba/F3). In kind it is cell-based, murine. To be noted: Tel-TK transformed Ba/F3 cells, 48 hours, Britelite luminescence. Put shortly: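 IL-3-independent murine Ba/F3 cells transformed with a TEL/BCR-fused IGF-1R kinase were seeded at 3750 cells/well and exposed to serially diluted compound for 48 h at 37 °C. Viability was read by Britelite luminescence. IC50 is the concentration giving 50% of DMSO-control viability, from a logistic fit.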

The IC50 is the midpoint of a concentration-inhibition curve.

T1 sequence (P08069 999-1274 limits assumed): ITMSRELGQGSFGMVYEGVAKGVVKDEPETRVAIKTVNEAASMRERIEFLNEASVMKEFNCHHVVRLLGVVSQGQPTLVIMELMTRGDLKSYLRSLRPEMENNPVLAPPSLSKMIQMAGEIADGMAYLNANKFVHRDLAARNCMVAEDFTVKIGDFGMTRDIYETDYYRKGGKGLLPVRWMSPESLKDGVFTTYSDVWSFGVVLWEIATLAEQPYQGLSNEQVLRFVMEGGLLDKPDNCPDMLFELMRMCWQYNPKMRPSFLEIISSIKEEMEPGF

`COc1cc(Nc2ncc(Cl)c(Nc3cc(C)[nH]n3)n2)c(C)cc1C1CCN(C)CC1` [Compound 219, 5-chloro-N2-(5-methoxy-2-methyl-4-(1-methylpiperidin-4-yl)phenyl)-N4-(5-methyl-1H-pyrazol-3-yl)pyrimidine-2,4-diamine] had a half-inhibitory concentration (IC50) of 9 nM.

`Cc1cc(Nc2nc(Nc3cc(Cl)c(C4CCN(CCC(F)(F)F)CC4)cc3C)ncc2Cl)n[nH]1` [Compound 27, 5-chloro-N2-(5-chloro-2-methyl-4-(1-(3,3,3-trifluoropropyl)piperidin-4-yl)phenyl)-N4-(5-methyl-1H-pyrazol-3-yl)pyrimidine-2,4-diamine] had an IC50 of 44 nM.

`Cc1cc(Nc2nc(Nc3cc(C)c(C4CCN(C(=O)CN5CCC5)CC4)cc3F)ncc2Cl)n[nH]1` [Compound 98, 2-(azetidin-1-yl)-1-(4-(4-(5-chloro-4-(5-methyl-1H-pyrazol-3-ylamino)pyrimidin-2-ylamino)-5-fluoro-2-methylphenyl)piperidin-1-yl)ethanone] yielded an IC50 of 64 nM.

In turn, `Cc1cc(Nc2nc(Nc3cc(C)c(C4CCN(C[C@H](O)C(F)(F)F)CC4)cc3C)ncc2C)n[nH]1` [Compound 179, (S)-3-(4-(2,5-dimethyl-4-(5-methyl-4-(5-methyl-1H-pyrazol-3-ylamino)pyrimidin-2-ylamino)phenyl)piperidin-1-yl)-1,1,1-trifluoropropan-2-ol] had an IC50 of 120 nM.

`Cc1cc(Nc2nc(Nc3cc(C)c(C4CC[N+]([O-])(C5CS(=O)(=O)C5)CC4)cc3F)ncc2Cl)n[nH]1` (stereo not shown) [Compound 295, 5-Chloro-N2-{4-[1-(1,1-dioxo-1λ6-thietan-3-yl)-1-oxide-piperidin-4-yl]-2-fluoro-5-methyl-phenyl}-N4-(5-ethyl-1H-pyrazol-3-yl)-pyrimidine-2,4-diamine] registered an IC50 of 39 nM.

Regarding `Cc1cc(C2CCN(CC(N)=O)CC2)c(C)cc1Nc1ncc(Cl)c(Nc2cc(C(F)(F)F)[nH]n2)n1` [Compound 217, 2-(4-(4-(5-chloro-4-(5-(trifluoromethyl)-1H-pyrazol-3-ylamino)pyrimidin-2-ylamino)-2,5-dimethylphenyl)piperidin-1-yl)acetamide], the IC50 was 34 nM.

The molecule `Cc1cc(Nc2nc(Nc3cc(C)c(C4CCN(C(=O)[C@@H]5CCCN5C)CC4)cc3C)ncc2Cl)n[nH]1` [Compound 121, (S)-(4-(4-(5-chloro-4-(5-methyl-1H-pyrazol-3-ylamino)pyrimidin-2-ylamino)-2,5-dimethylphenyl)piperidin-1-yl)(1-methylpyrrolidin-2-yl)methanone] gave an IC50 of 17 nM.

In turn, `CNC(=O)CN1CCC[C@@H](c2cc(C)c(Nc3ncc(Cl)c(Nc4cc(C)[nH]n4)n3)cc2C)C1` (single isomer, unassigned) [Compound 208] had an IC50 of 10 nM.

`Cc1cc(Nc2nc(Nc3cc(C)c(C4CCN(CCC(F)(F)F)CC4)cc3F)ncc2Cl)n[nH]1` [Compound 24, 5-chloro-N^2-(2-fluoro-5-methyl-4-(1-(3,3,3-trifluoropropyl)piperidin-4-yl)phenyl)-N^4-(5-methyl-1H-pyrazol-3-yl)pyrimidine-2,4-diamine]: the IC50 was found to be 85 nM.

`CNC(=O)CN1CCC(c2cc(F)c(Nc3ncc(Cl)c(Nc4cc(C)[nH]n4)n3)cc2C)CC1` [Compound 42, 2-(4-(4-(5-chloro-4-(5-methyl-1H-pyrazol-3-ylamino)pyrimidin-2-ylamino)-5-fluoro-2-methylphenyl)piperidin-1-yl)-N-methylacetamide] displayed an IC50 of 19 nM.

On to `Cc1cc(Nc2ncc(Cl)c(Nc3cc[nH]n3)n2)c(OC(C)C)cc1C1CCN(C)CC1` [Compound 161, 5-chloro-N2-(2-isopropoxy-5-methyl-4-(1-methylpiperidin-4-yl)phenyl)-N4-(1H-pyrazol-3-yl)pyrimidine-2,4-diamine], for which the IC50 is 332 nM.

In the case of `Cc1cc(Nc2nc(Nc3cc(C)c(C4CCN(Cc5ccncc5)CC4)cc3F)ncc2Cl)n[nH]1` [Compound 288, 5-chloro-N2-(2-fluoro-5-methyl-4-(1-(pyridin-4-ylmethyl)piperidin-4-yl)phenyl)-N4-(5-methyl-1H-pyrazol-3-yl)pyrimidine-2,4-diamine], the IC50 was 93 nM.

`CNC(C)C(=O)N1CCC(c2cc(F)c(Nc3ncc(Cl)c(Nc4cc(C)[nH]n4)n3)cc2C)CC1` (stereo not shown) [Compound 85, 1-(4-(4-(5-chloro-4-(5-methyl-1H-pyrazol-3-ylamino)pyrimidin-2-ylamino)-5-fluoro-2-methylphenyl)piperidin-1-yl)-2-(methylamino)propan-1-one] yielded an IC50 of 42 nM.

`Cc1cc(Nc2nc(Nc3cc(C)c(C4CCN(C(=O)c5nc(C(C)C)no5)CC4)cc3F)ncc2Cl)n[nH]1` [Compound 265, (4-(4-(5-Chloro-4-(5-methyl-1H-pyrazol-3-ylamino)pyrimidin-2-ylamino)-5-fluoro-2-methylphenyl)piperidin-1-yl)(3-isopropyl-1,2,4-oxadiazol-5-yl)methanone] showed an IC50 of 91 nM.

`Cc1cc(Nc2nc(Nc3cc(C)c(C4CCN(Cc5noc(C)n5)CC4)cc3F)ncc2Cl)n[nH]1` [Compound 292, 5-chloro-N2-(2-fluoro-5-methyl-4-(1-((5-methyl-1,2,4-oxadiazol-3-yl)methyl)piperidin-4-yl)phenyl)-N4-(5-methyl-1H-pyrazol-3-yl)pyrimidine-2,4-diamine]: half-maximal inhibition (IC50) was put at 23 nM.

The molecule `CCc1cc(Nc2ncc(Cl)c(Nc3cc(C)[nH]n3)n2)c(C)cc1C1CCN(CC(N)=O)CC1` [Compound 261, 2-(4-(4-(5-chloro-4-(5-methyl-1H-pyrazol-3-ylamino)pyrimidin-2-ylamino)-2-ethyl-5-methylphenyl)piperidin-1-yl)acetamide] came in with an IC50 of 27 nM.

`Cc1cc(Nc2nc(Nc3cc(C)c(C4CCCCN4C(=O)CN(C)C)cc3C)ncc2Cl)n[nH]1` (stereo not shown) [Compound 83, 1-(2-(4-(5-chloro-4-(5-methyl-1H-pyrazol-3-ylamino)pyrimidin-2-ylamino)-2,5-dimethylphenyl)piperidin-1-yl)-2-(dimethylamino)ethanone] yielded an IC50 of 13 nM.

`Cc1cc(Nc2nc(Nc3cc(C)c(C4CCN(CCCS(=O)(=O)N5CCC5)CC4)cc3C)ncc2Cl)n[nH]1` [Compound 214, N^2-(4-(1-(3-(azetidin-1-ylsulfonyl)propyl)piperidin-4-yl)-2,5-dimethylphenyl)-5-chloro-N^4-(5-methyl-1H-pyrazol-3-yl)pyrimidine-2,4-diamine] gave an IC50 of 40 nM.

As to `Cc1cc(Nc2ncc(Cl)c(Nc3cc(C4CC4)[nH]n3)n2)c(F)cc1C1CCN(C2CC2)CC1` [Compound 255, 5-chloro-N4-(5-cyclopropyl-1H-pyrazol-3-yl)-N2-(4-(1-cyclopropylpiperidin-4-yl)-2-fluoro-5-methylphenyl)pyrimidine-2,4-diamine], half-maximal inhibition (IC50) was put at 228 nM.

On to `Cc1cc(Nc2nc(Nc3cc(C)c(C4CCN(C(=O)c5oc(C)nc5C)CC4)cc3F)ncc2Cl)n[nH]1` [Compound 127, (4-(4-(5-chloro-4-(5-methyl-1H-pyrazol-3-ylamino)pyrimidin-2-ylamino)-5-fluoro-2-methylphenyl)piperidin-1-yl)(2,4-dimethyloxazol-5-yl)methanone], for which the IC50 amounted to 27 nM.

`CNC(=O)CN1CCC(c2cc(C)c(Nc3ncc(Cl)c(Nc4cc(C)[nH]n4)n3)cc2C)CC1` [Compound 38, 2-(4-(4-(5-chloro-4-(5-methyl-1H-pyrazol-3-ylamino)pyrimidin-2-ylamino)-2,5-dimethylphenyl)piperidin-1-yl)-N-methylacetamide] displayed an IC50 of 10 nM.

The molecule `Cc1cc(Nc2nc(Nc3cc(C)c(C4CCN(CCC(=O)N5CCCC5)CC4)cc3F)ncc2Cl)n[nH]1` [Compound 242, 3-(4-(4-(5-chloro-4-(5-methyl-1H-pyrazol-3-ylamino)pyrimidin-2-ylamino)-5-fluoro-2-methylphenyl)piperidin-1-yl)-1-(pyrrolidin-1-yl)propan-1-one] yielded an IC50 of 60 nM.

Regarding `COc1cc(Nc2ncc(Cl)c(Nc3cc(C)[nH]n3)n2)c(C)cc1C1CCN(C[C@@H](O)C(F)(F)F)CC1` [Compound 228, (R)-3-(4-(4-(5-chloro-4-(5-methyl-1H-pyrazol-3-ylamino)pyrimidin-2-ylamino)-2-methoxy-5-methylphenyl)piperidin-1-yl)-1,1,1-trifluoropropan-2-ol], the IC50 is 23 nM.

For `Cc1cc(Nc2nc(Nc3cc(C)c(C4CCN(C5CCC(O)CC5)CC4)cc3F)ncc2Cl)n[nH]1` (stereo not shown) [Compound 298, 4-(4-(4-(5-chloro-4-(5-methyl-1H-pyrazol-3-ylamino)pyrimidin-2-ylamino)-5-fluoro-2-methylphenyl)piperidin-1-yl)cyclohexanol], it took 26 nM to reach half-maximal inhibition (IC50).

As to `CNC(=O)CN1CCC(c2cc(F)c(Nc3ncc(Cl)c(Nc4cc(C(F)(F)F)[nH]n4)n3)cc2C)CC1` [Compound 172, 2-(4-(4-(5-chloro-4-(5-(trifluoromethyl)-1H-pyrazol-3-ylamino)pyrimidin-2-ylamino)-5-fluoro-2-methylphenyl)piperidin-1-yl)-N-methylacetamide], half-maximal inhibition (IC50) was put at 69 nM.

Take `Cc1cc(Nc2nc(Nc3cc(Cl)c(C4CCN(C(=O)CN(C)C)CC4)cc3C)ncc2Cl)n[nH]1` [Compound 74, 1-(4-(2-chloro-4-(5-chloro-4-(5-methyl-1H-pyrazol-3-ylamino)pyrimidin-2-ylamino)-5-methylphenyl)piperidin-1-yl)-2-(dimethylamino)ethanone]: the IC50 amounted to 7 nM.

The molecule `Cc1cc(Nc2nc(Nc3cc(C)c(C4CCN(C(=O)CN)CC4)cc3F)ncc2Cl)n[nH]1` [Compound 79, 2-amino-1-(4-(4-(5-chloro-4-(5-methyl-1H-pyrazol-3-ylamino)pyrimidin-2-ylamino)-5-fluoro-2-methylphenyl)piperidin-1-yl)ethanone] showed an IC50 of 75 nM.

In turn, `Cc1cc(Nc2nc(Nc3cc(C)c(C4CCCCN4C)cc3C)ncc2Cl)n[nH]1` (stereo not shown) [Compound 16, 5-chloro-N2-(2,5-dimethyl-4-(1-methylpiperidin-2-yl)phenyl)-N4-(5-methyl-1H-pyrazol-3-yl)pyrimidine-2,4-diamine] came in with an IC50 of 19 nM.
